Measurements from patent publication US12186398B2, “Non-ionic PVP-PLA block copolymers and liquid pharmaceutical compositions derived therefrom” (ALTUS FORMULATION INC., priority 2017, dated 2025).
Where two headings read alike, the source gives them in different places.

What was measured:
[1] = Literature IV PK of FLU solution in rats (Park and Kim; Knihinicki et al); assay type: in vivo; conditions: Park and Kim data fitted to 2 compartmental model
Text: The fitted results obtained in the JRF study were then compared to those in the literature, generated after administering a non-micellar low concentration simple FLU solution IV to rats. This was undertaken to determine potential differences in FLU pharmacokinetics induced by the micellar formulation.
The results from the JRF study were then compared to literature values for FLU PK administered as an IV solution as generated by Park and Kim (1) and Knihinicki et al (2); the comparison is shown in Table 39.
For comparative purposes, the rat PK data for a FLU solution generated by Park and Kim (1) were also fitted to the 2 compartmental model (FIG. 22 and Table 41).

[2] = FLU solution, rats, IV […], NCA, cited from earlier work
[3] = tested on: Human red blood cells (RBC); assay: In vitro haemolysis; assay type: cell-based; conditions: 5 mg/mL, 37° C., 60 min
Experimental: For example suspended RBCs isolated from whole human blood may be mixed with non-formulated cargo molecules or test formulations comprising the cargo molecule at a given final concentration with respect to the cargo molecule incubated at 37° C. for 60 minutes, and centrifuged to remove intact RBCs. […] Human red blood cells (RBC) were isolated by centrifugation from whole blood collected in vaccutainer containing EDTA. […] Freeze-dried formulations were reconstituted in water and then diluted to the desired concentrations with PBS.

[4] = Extrapolation to human IV 2 compartmental PK parameters; conditions: estimated human iv, PPI 1501 by rat difference ratio, solution from literature oral PK
Text: Both sets of rodent data were then extrapolated using published human FLU PK parameters to estimate the PK of FLU post IV administration of PPI 1501 or non-formulated FLU to humans.
Assuming the plasma PK profile of FLU mediated by IV PPI 1501 in the rat is translatable to human, i.e. that the same PK parameter difference ratios for FLU in PPI 1501 observed in the rat apply in humans, then the human IV PK parameters for FLU in PPI 1501 can be estimated. This may be achieved by simple multiplication of the difference ratios provided in Table 41 (last column) to again obtain the comparative human PK parameter values FLU in PPI 1501 versus those obtained from injection of the simple solution; such data may also be compared to data obtained by injecting humans with the prodrug FA (Table 42).
The human IV PK parameters of FLU in solution were estimated based on the oral PK parameters of FLU and its estimated oral bioavailability (project 1 report, Duan, 2015, Table 42, ref 3-8).

[5] = human iv FA, values from project 1 report; cited from earlier work

## CC(C(=O)O)c1ccc(-c2ccccc2)c(F)c1 (stereo not drawn) [FLU, flurbiprofen]
[1]; IV […]
  t1/2Alpha: 5.4 min
  t1/2Beta: 2.73 h
[1]; rat, plasma, IV 2.5 mg/kg
  AUC(0-inf): 51.4 µg·h/mL
  AUC(0-t): 45.3 µg·h/mL
  C0: 49.8 µg/mL
  MRT: 3.57 h
  clearance: 0.0486 L/h/kg
[1]; rat, plasma, IV 2.5 mg/kg, read-out: Vss
  Vd: 0.174 L/kg
[2]; Knihinicki et al
  Vss: 0.22 L/kg
  Vz: 0.239 L/kg
  t1/2: 3.07 h
[2]; Park & Kim
  Vss: 0.15678 L/kg
  Vz: 0.19231 L/kg
  t1/2: 2.78 h
[3]
  absorbance at 540 nm: 0.54±0.03
[3]; triplicate ± standard deviation
  percent haemolysis: 92.1±17.2%
[4]
  CL: 0.967 L/h
  CL2: 0.343 L/h
  MRT (est. based on 2 compartment model): 7.43 h
  V: 4.984 L
  V2: 2.199 L

## flurbiprofen axetil [FA]
[5]
  CL: 1.14 L/h
  CL2: 4.40 L/h
  Ka: 58 h⁻¹
  MRT (est. based on 2 compartment model): 7.36 h
  V: 5.11 L
  V2: 3.28 L
